Data as given in US10045990B2, “ERBB4 inhibitors and methods of use thereof” (Arizona Board of Regents on behalf of Arizona State …, priority 2015, dated 2018).
Read-outs that look alike come from different tables or passages of the source.

Experiments:
BCRABL = test: NAPPA array kinase autophosphorylation assay; type: biochemical, human; conditions: DMSO = 100
H716 = test: cell growth / viable cell count in ERBB4-overexpressing, BTK-negative cell line; type: cell-based, human
BTK [1] = biological target: T1, BTK (Homo sapiens, UniProt Q06187); conditions: 1 uM, radioactive ATP (FIG. 3A)
T1 sequence (Q06187 whole entry): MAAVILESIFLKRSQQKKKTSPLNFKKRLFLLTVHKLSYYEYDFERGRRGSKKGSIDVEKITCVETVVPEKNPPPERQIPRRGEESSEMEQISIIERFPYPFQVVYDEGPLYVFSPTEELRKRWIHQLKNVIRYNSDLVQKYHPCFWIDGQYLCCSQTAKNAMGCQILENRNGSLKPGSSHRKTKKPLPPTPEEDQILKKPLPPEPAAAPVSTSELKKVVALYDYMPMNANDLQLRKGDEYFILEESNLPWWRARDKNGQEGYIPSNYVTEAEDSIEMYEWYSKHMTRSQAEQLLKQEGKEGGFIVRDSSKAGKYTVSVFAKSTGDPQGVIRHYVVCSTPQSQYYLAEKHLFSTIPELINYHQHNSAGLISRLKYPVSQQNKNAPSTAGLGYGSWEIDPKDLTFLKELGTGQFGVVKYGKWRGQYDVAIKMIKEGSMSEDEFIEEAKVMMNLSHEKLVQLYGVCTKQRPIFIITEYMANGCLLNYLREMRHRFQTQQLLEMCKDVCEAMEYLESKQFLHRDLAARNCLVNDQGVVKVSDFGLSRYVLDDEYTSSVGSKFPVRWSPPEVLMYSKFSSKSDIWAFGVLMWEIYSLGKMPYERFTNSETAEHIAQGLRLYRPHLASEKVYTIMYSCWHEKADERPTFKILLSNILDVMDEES
Method: (§1) First, radioactive kinase assays were performed with purified protein kinases incubated with radioactive ATP and increasing concentrations of kinase inhibitors. The kinase activity was measured through the levels of radioactive phosphorylation present in each kinase.

H146 = test: cell growth / viable cell count in ERBB4-overexpressing, BTK-negative cell line; type: cell-based, human
OVKATE = conditions: 1 uM, 7 days, Trypan blue exclusion, vs DMSO
H522 = test: cell growth / viable cell count in ERBB4-overexpressing, BTK-negative cell line; type: cell-based, human
1321N1 = test: as above; type: cell-based, human
YES1 [2] = biological target: T2, YES1 (Homo sapiens, UniProt P07947); test: NAPPA array kinase autophosphorylation assay; type: biochemical; conditions: DMSO = 100
T2 construct: made in house; host or cells: human cell-free coupled transcription-translation (1-Step Human Coupled IVT), on the slide
T2 sequence (P07947 whole entry): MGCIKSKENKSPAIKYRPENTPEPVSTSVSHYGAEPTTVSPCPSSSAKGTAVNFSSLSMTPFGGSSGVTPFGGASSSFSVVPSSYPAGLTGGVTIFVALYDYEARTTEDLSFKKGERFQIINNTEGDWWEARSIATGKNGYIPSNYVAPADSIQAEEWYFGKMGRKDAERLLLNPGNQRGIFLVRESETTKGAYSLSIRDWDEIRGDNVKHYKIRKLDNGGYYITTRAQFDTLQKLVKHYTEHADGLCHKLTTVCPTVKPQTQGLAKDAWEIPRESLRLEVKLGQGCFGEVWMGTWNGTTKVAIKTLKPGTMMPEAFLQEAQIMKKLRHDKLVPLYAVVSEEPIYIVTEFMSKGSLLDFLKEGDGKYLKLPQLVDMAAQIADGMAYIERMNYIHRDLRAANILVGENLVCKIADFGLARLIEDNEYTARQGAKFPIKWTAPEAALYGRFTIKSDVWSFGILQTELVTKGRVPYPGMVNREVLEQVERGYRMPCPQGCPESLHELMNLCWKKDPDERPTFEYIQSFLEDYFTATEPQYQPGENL

H661 = test: cell growth / viable cell count in ERBB4-overexpressing, BTK-negative cell line; type: cell-based, human
responsive cell lines = test: cell based assays, responsive cell lines; design: species or system human
COV318 = test: cell growth / viable cell count in ERBB4-overexpressing, BTK-negative cell line; type: cell-based, human
FGFR4 = biological target: T3, FGFR4 (Homo sapiens, UniProt P22455); test: NAPPA array kinase autophosphorylation assay; type: biochemical; conditions: DMSO = 100
T3 construct: made in house; host or cells: human cell-free coupled transcription-translation (1-Step Human Coupled IVT), on the slide
T3 sequence (P22455 22-802): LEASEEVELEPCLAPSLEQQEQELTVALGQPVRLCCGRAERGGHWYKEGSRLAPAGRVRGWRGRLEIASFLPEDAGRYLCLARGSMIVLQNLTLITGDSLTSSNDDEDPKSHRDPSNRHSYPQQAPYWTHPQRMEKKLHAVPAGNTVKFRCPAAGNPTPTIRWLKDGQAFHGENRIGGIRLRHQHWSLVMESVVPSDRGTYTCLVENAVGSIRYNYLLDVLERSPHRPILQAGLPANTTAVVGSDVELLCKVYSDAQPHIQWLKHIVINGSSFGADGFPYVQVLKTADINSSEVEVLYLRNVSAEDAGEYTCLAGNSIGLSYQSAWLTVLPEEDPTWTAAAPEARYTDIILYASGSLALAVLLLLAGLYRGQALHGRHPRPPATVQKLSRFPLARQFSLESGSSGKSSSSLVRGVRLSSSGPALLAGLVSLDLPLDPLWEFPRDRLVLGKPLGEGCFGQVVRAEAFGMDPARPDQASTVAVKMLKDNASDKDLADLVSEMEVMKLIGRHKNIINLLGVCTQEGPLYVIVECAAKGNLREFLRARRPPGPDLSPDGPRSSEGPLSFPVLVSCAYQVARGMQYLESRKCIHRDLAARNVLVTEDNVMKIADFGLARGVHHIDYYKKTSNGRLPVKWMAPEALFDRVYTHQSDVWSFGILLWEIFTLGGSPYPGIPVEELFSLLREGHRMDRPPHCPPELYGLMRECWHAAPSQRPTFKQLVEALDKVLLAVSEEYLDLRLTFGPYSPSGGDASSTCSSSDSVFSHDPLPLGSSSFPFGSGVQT
Method: (§2) Protein microarrays were generated using NAPPA (Nucleic acid programmable protein array) methodology, which permits the use of freshly expressed proteins for functional assays (FIG. 1). In NAPPA, cDNAs coding for the target of interest are cloned into an expression vector, which generates a fusion (Halo Tag, GST, etc.) to the target, and spotted onto a glass slide. Then to each spot, a HeLa cell in vitro transcription-translation reagent is added, whereby the fusion gene is transcribed into mRNA and translated. The nascent proteins are captured to the slide with antibody to the fusion partner (i.e., HaloTag-ligand, α-GST antibody) that is spotted adjacent to the DNA during the manufacture of the array. This method allows for up to thousands of protein targets to be arrayed. NAPPA microarrays can be expressed using an in vitro transcription and translation system (IVTT), and the anti-tag antibody captures newly synthesized proteins. Following expression, the microarrays were treated with phosphatase to remove any phosphorylation that occurred during the expression of the proteins.
(§3) De-phosphorylated arrays were then incubated with kinase buffer containing various concentrations of ATP and/or kinase inhibitors. The kinase activity was measured as end point assay using anti-phopho tyrosine antibody linked to cy3 as the detecting agent (FIG. 2). The data was normalized using positive control features present in each array.
(§4) NAPPA kinase microarrays we generated with virtually all protein-tyrosine kinases from the human genome. The coding sequence for each tyrosine kinase was clone into an expression plasmid and immobilized on the microarray surface, with one protein kinase per feature. After the microarray was expressed, any phosphorylation that occurred during the expression step was removed by a treatment with lambda phosphatase.
(§5) Unphosphorylated microarrays were then incubated with a kinase buffer (25 mM Tris-HCl (pH 7.5), 5 mM beta-glycerophosphate, 2 mM dithiothreitol (DTT), 0.1 mM Na3VO4, 10 mM MgCl2) supplemented with […] and/or kinase inhibitors (concentration ranging from 0-10 uM). The kinase autophosphorylation activity was measured through the levels of phosphorylation present in each feature and was detected by phospho-tyrosine antibody. […] Staurosporine is a pan kinase inhibitor used as a control.
(§6) NAPPA arrays suitable for measuring the activity of protein kinases and evaluating the selectivity of kinase inhibitors were produced using a variation of the published protocol (Proteomics Clin Appl. 2013 June; 7(5-6):372-7.). Briefly, NAPPA printing mix was prepared with plasmid DNA coding for genes of interest, anti-flag antibody, cross-linker and poly-lysine. Samples were agitated for 90 minutes at 1200 rpm at RT and printed in quadruplicate in aminopropyltriethoxysilane coated glass slides.
(§7) Arrays were stored in an airtight container at room temperature until use.

TNK2 = biological target: T4, TNK2 (Homo sapiens, UniProt Q07912); test: NAPPA array kinase autophosphorylation assay; type: biochemical; conditions: DMSO = 100
T4 construct: made in house; host or cells: human cell-free coupled transcription-translation (1-Step Human Coupled IVT), on the slide
Method: as §2, §3, §4, §5, §6, §7

ERBB3/HER3 = biological target: T5, ERBB3/HER3 (Homo sapiens, UniProt P21860); test: NAPPA array kinase autophosphorylation assay; type: biochemical; conditions: DMSO = 100
T5 construct: made in house; host or cells: human cell-free coupled transcription-translation (1-Step Human Coupled IVT), on the slide
Method: as §2, §3, §4, §5, §6, §7

EPHA3 = biological target: T6, EPHA3 (Homo sapiens, UniProt P29320); test: NAPPA array kinase autophosphorylation assay; type: biochemical; conditions: DMSO = 100
T6 construct: made in house; host or cells: human cell-free coupled transcription-translation (1-Step Human Coupled IVT), on the slide
Method: as §2, §3, §4, §5, §6, §7

HCK = biological target: T7, HCK (Homo sapiens, UniProt P08631); test: NAPPA array kinase autophosphorylation assay; type: biochemical; conditions: DMSO = 100
T7 construct: made in house; host or cells: human cell-free coupled transcription-translation (1-Step Human Coupled IVT), on the slide
T7 sequence (P08631 whole entry): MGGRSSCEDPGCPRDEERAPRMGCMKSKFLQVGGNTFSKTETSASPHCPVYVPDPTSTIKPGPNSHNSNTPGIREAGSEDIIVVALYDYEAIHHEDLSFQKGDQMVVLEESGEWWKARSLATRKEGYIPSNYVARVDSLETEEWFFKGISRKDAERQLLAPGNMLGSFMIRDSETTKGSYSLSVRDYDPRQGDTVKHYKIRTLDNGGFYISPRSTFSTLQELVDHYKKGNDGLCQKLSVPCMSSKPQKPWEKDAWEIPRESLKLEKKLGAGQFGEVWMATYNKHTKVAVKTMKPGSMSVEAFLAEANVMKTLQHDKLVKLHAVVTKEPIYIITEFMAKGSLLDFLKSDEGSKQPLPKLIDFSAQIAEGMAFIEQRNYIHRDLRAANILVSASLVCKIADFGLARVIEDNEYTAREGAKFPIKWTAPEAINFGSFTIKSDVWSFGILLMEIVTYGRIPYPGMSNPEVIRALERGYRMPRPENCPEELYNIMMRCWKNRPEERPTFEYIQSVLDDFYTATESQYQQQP
Method: as §2, §3, §4, §5, §6, §7

SYK = SYK (Homo sapiens, UniProt P43405); test: NAPPA array kinase autophosphorylation assay; type: biochemical; conditions: DMSO = 100
Method: as §2, §3, §4, §5, §6, §7

DYRK2 = biological target: T8, DYRK2 (Homo sapiens, UniProt Q92630); test: NAPPA array kinase autophosphorylation assay; type: biochemical; conditions: DMSO = 100
T8 construct: made in house; host or cells: human cell-free coupled transcription-translation (1-Step Human Coupled IVT), on the slide
Method: as §2, §3, §4, §5, §6, §7

ERBB4/HER4 = biological target: T9, ERBB4/HER4 (Homo sapiens, UniProt Q15303); test: NAPPA array kinase autophosphorylation assay; type: biochemical; conditions: DMSO = 100
T9 construct: made in house; host or cells: human cell-free coupled transcription-translation (1-Step Human Coupled IVT), on the slide
Method: as §2, §3, §4, §5, §6, §7

FGFR1 = biological target: T10, FGFR1 (Homo sapiens, UniProt P11362); test: NAPPA array kinase autophosphorylation assay; type: biochemical; conditions: DMSO = 100
T10 construct: made in house; host or cells: human cell-free coupled transcription-translation (1-Step Human Coupled IVT), on the slide
Method: as §2, §3, §4, §5, §6, §7

TESK2 = biological target: T11, TESK2 (Homo sapiens, UniProt Q96S53); test: NAPPA array kinase autophosphorylation assay; type: biochemical; conditions: DMSO = 100
T11 construct: made in house; host or cells: human cell-free coupled transcription-translation (1-Step Human Coupled IVT), on the slide
T11 sequence (Q96S53 whole entry): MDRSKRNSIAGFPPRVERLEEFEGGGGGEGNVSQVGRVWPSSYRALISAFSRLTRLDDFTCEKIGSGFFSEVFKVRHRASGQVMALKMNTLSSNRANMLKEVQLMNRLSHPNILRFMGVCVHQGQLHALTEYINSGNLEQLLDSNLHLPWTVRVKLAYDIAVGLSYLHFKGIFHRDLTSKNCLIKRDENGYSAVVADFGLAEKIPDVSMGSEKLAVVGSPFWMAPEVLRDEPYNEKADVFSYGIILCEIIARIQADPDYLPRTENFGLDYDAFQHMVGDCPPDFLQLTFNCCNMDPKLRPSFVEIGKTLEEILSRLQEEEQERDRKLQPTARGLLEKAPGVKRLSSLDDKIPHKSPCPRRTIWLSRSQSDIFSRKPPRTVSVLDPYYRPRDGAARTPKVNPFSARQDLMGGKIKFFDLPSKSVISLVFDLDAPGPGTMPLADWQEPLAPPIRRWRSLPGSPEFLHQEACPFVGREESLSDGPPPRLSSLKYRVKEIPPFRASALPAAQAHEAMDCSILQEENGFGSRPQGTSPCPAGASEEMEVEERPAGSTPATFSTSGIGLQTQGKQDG
Method: as §2, §3, §4, §5, §6, §7

EPHA1 = biological target: T12, EPHA1 (Homo sapiens, UniProt P21709); test: NAPPA array kinase autophosphorylation assay; type: biochemical; conditions: DMSO = 100
T12 construct: made in house; host or cells: human cell-free coupled transcription-translation (1-Step Human Coupled IVT), on the slide
Method: as §2, §3, §4, §5, §6, §7

Tec = biological target: T13, Tec (Homo sapiens, UniProt P42680); test: NAPPA array kinase autophosphorylation assay; type: biochemical; conditions: DMSO = 100
T13 construct: made in house; host or cells: human cell-free coupled transcription-translation (1-Step Human Coupled IVT), on the slide
T13 sequence (P42680 whole entry): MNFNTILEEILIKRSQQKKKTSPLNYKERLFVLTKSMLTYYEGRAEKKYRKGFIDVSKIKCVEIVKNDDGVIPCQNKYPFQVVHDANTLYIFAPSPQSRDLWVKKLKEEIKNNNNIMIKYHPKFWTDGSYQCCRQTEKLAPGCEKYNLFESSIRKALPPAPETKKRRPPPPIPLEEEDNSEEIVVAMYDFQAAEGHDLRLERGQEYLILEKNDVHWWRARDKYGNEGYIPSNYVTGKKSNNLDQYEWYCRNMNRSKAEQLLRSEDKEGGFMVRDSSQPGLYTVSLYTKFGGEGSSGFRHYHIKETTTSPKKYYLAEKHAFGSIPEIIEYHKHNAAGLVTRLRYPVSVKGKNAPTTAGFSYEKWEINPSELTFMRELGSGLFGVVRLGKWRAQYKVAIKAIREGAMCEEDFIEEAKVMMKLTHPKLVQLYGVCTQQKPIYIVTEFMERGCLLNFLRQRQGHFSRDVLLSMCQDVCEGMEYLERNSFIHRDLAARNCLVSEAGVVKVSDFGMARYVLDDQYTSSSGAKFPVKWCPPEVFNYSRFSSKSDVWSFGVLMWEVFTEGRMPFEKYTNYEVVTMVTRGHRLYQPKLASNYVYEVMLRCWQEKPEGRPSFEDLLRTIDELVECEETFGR
Method: as §2, §3, §4, §5, §6, §7

EPHA7 = biological target: T14, EPHA7 (Homo sapiens, UniProt Q15375); test: NAPPA array kinase autophosphorylation assay; type: biochemical; conditions: DMSO = 100
T14 construct: made in house; host or cells: human cell-free coupled transcription-translation (1-Step Human Coupled IVT), on the slide
T14 sequence (Q15375 28-998): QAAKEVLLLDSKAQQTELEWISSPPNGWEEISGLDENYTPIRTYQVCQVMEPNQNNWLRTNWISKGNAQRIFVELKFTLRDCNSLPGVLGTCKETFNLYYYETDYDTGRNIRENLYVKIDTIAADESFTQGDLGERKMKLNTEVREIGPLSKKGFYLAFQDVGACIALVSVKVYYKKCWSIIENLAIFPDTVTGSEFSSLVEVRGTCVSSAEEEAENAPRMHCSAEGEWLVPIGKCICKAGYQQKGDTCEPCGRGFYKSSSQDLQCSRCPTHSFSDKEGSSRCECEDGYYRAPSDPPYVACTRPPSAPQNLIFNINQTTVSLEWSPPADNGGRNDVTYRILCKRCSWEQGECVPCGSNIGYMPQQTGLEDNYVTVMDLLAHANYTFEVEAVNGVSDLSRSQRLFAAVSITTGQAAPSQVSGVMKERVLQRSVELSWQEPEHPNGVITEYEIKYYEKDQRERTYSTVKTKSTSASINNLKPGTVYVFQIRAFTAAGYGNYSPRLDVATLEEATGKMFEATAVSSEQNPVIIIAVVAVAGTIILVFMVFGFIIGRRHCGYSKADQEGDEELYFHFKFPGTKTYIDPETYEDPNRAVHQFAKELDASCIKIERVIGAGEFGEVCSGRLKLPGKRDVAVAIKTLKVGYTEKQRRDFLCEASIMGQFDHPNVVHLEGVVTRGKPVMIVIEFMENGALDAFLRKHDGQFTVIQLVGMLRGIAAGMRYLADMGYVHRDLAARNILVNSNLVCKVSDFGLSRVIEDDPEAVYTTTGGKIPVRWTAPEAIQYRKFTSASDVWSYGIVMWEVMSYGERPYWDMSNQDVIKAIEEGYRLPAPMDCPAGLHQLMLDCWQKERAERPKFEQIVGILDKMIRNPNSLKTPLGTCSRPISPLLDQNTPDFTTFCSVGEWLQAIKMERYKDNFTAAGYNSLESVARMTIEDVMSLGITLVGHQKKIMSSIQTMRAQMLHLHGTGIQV
Method: as §2, §3, §4, §5, §6, §7

EGFR/ERBB1 = biological target: T15, EGFR/ERBB1 (Homo sapiens, UniProt P00533); test: NAPPA array kinase autophosphorylation assay; type: biochemical; conditions: DMSO = 100
T15 construct: made in house; host or cells: human cell-free coupled transcription-translation (1-Step Human Coupled IVT), on the slide
Method: as §2, §3, §4, §5, §6, §7

ERBB4 = ERBB4 (Homo sapiens, UniProt Q15303); test: radioactive kinase assay with purified kinase; type: biochemical; conditions: 1 uM, radioactive ATP (FIG. 3A)
Method: as §1

HEC59 = test: cell growth / viable cell count in ERBB4-overexpressing, BTK-negative cell line; type: cell-based, human; design: % Survival: dose or concentration left out as unconfirmed
KLE = test: as above; type: cell-based, human; design: % Survival: dose or concentration left out as unconfirmed
YES1 [3] = biological target: T2, YES1; test: NAPPA array kinase autophosphorylation assay; type: biochemical; conditions: Yes1 (second entry), DMSO = 100
Abl1 = Abl1 (Homo sapiens, UniProt P00519); conditions: DMSO = 100
Method: as §2, §3, §4, §5
(§8) NAPPA arrays suitable for measuring the activity of protein kinases and evaluating the selectivity of kinase inhibitors were produced using a variation of the published protocol (Proteomics Clin Appl. 2013 June; 7(5-6):372-7.). Briefly, NAPPA printing mix was prepared with plasmid DNA coding for genes of interest, anti-flag antibody, cross-linker and poly-lysine. […]

BTK [4] = biological target: T1, BTK; conditions: DMSO = 100
Method: as §2, §3, §4, §5, §8

OVSAHO = conditions: 1 uM, 7 days, Trypan blue exclusion, vs DMSO
COV434 = conditions: 1 uM, 7 days, Trypan blue exclusion, vs DMSO
[5] = 0, 1 nM, 10 nM, 100 nM, 1 uM or 10 uM for 7 days
[6] = 1 uM, 7 days, Trypan blue exclusion, vs DMSO
[7] = percentage of viable cells after a 24-hour treatment of 1 nM ibrutinib

BCRABL, sequence (P00519 229-512 limits assumed): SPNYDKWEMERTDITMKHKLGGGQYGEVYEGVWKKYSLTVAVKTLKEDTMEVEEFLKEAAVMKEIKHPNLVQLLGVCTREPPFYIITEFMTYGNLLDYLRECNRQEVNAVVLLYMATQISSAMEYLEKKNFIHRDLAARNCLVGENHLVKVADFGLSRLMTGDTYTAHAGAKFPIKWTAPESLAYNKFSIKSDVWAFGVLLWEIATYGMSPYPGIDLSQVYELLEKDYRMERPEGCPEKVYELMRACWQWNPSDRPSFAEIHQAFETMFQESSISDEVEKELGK

Ibrutinib
kinase activity (%) (BCRABL; 0.1 uM Ibrutinib): 92.0%
kinase activity (%) (BCRABL; 1 uM Ibrutinib): 93.1%
sensitivity of cell line (H716; [5]): very sensitive
growth inhibition rate (H716; [6]): 75%
% Survival (H716; [7]): 25.5%
activity inhibited (BTK [1]): more than 80%
growth inhibition rate (H146; H146, 1 uM, 7 days, Trypan blue exclusion, vs DMSO): 0%
% Survival (H146; H146, percentage of viable cells after a 24-hour treatment of 1 nM ibrutinib): 100.0%
sensitivity of cell line (H146; H416, 0, 1 nM, 10 nM, 100 nM, 1 uM or 10 uM for 7 days): apparently resistant
growth inhibition rate (OVKATE): 45%
sensitivity of cell line (H522; [5]): very sensitive
growth inhibition rate (H522; [6]): 60%
% Survival (H522; [7]): 41.0%
sensitivity of cell line (1321N1; [5]): apparently resistant
growth inhibition rate (1321N1; [6]): 10%
% Survival (1321N1; [7]): 89.7%
kinase activity (%) (YES1 [2]; 0.1 uM Ibrutinib): 99.3%
kinase activity (%) (YES1 [2]; 1 uM Ibrutinib): 90.9%
sensitivity of cell line (H661; [5]): very sensitive
growth inhibition rate (H661; [6]): 72%
% Survival (H661; [7]): 28.2%
inhibition in the responsive cell lines (responsive cell lines): 60-75%
sensitivity of cell line (COV318; [5]): apparently resistant
growth inhibition rate (COV318; [6]): 8%
% Survival (COV318; [7]): 91.5%
kinase activity (%) (FGFR4; 0.1 uM Ibrutinib): 81.5%
kinase activity (%) (FGFR4; 1 uM Ibrutinib): 99.1%
kinase activity (%) (TNK2; 0.1 uM Ibrutinib): 99.9%
kinase activity (%) (TNK2; 1 uM Ibrutinib): 86.9%
kinase activity (%) (ERBB3/HER3; 0.1 uM Ibrutinib): 100.0%
kinase activity (%) (ERBB3/HER3; 1 uM Ibrutinib): 206.1%
kinase activity (%) (EPHA3; 0.1 uM Ibrutinib): 89.1%
kinase activity (%) (EPHA3; 1 uM Ibrutinib): 101.3%
kinase activity (%) (HCK; 0.1 uM Ibrutinib): 102.1%
kinase activity (%) (HCK; 1 uM Ibrutinib): 105.0%
kinase activity (%) (SYK; 0.1 uM Ibrutinib): 90.5%
kinase activity (%) (SYK; 1 uM Ibrutinib): 109.7%
kinase activity (%) (DYRK2; 0.1 uM Ibrutinib): 97.3%
kinase activity (%) (DYRK2; 1 uM Ibrutinib): 82.3%
kinase activity (%) (ERBB4/HER4; 0.1 uM Ibrutinib): 67.1%
kinase activity (%) (ERBB4/HER4; 1 uM Ibrutinib): 44.1%
kinase activity (%) (FGFR1; 0.1 uM Ibrutinib): 98.8%
kinase activity (%) (FGFR1; 1 uM Ibrutinib): 105.8%
kinase activity (%) (TESK2; 0.1 uM Ibrutinib): 85.8%
kinase activity (%) (TESK2; 1 uM Ibrutinib): 83.5%
kinase activity (%) (EPHA1; 0.1 uM Ibrutinib): 87.2%
kinase activity (%) (EPHA1; 1 uM Ibrutinib): 99.1%
kinase activity (%) (Tec; 0.1 uM Ibrutinib): 68.7%
kinase activity (%) (Tec; 1 uM Ibrutinib): 62.0%
kinase activity (%) (EPHA7; 0.1 uM Ibrutinib): 92.3%
kinase activity (%) (EPHA7; 1 uM Ibrutinib): 94.9%
kinase activity (%) (EGFR/ERBB1; 0.1 uM Ibrutinib): 81.2%
kinase activity (%) (EGFR/ERBB1; 1 uM Ibrutinib): 89.7%
activity inhibited (ERBB4): more than 80%
growth inhibition rate (HEC59; HEC59, 1 uM, 7 days, Trypan blue exclusion, vs DMSO): 31%
% Survival (HEC59; HEC59, percentage of viable cells): 68.8%
sensitivity of cell line (HEC59; Hec59, 0, 1 nM, 10 nM, 100 nM, 1 uM or 10 uM for 7 days): apparently resistant
sensitivity of cell line (KLE; [5]): very sensitive
growth inhibition rate (KLE; [6]): 73%
% Survival (KLE; percentage of viable cells after ibrutinib): 27.2%
kinase activity (%) (YES1 [3]; 0.1 uM Ibrutinib): 101.6%
kinase activity (%) (YES1 [3]; 1 uM Ibrutinib): 97.6%
kinase activity (%) (Abl1; 0.1 uM Ibrutinib): 101.5%
kinase activity (%) (Abl1; 1 uM Ibrutinib): 104.3%
kinase activity (%) (BTK [4]; 0.1 uM Ibrutinib): 38.3%
kinase activity (%) (BTK [4]; 1 uM Ibrutinib): 5.5%
growth inhibition rate (OVSAHO): 37%
growth inhibition rate (COV434): 15%
